Numbers after ± are expanded uncertainties.

The values that follow come from the NIST ThermoML archive (doi:10.1021/je900902z).

For this series the following is noted: DTA; for Triple point temperature: Crystal 2; for Normal melting temperature: Crystal.

Turning to `O=S(=O)([N-]S(=O)(=O)C(F)(F)C(F)(F)F)C(F)(F)C(F)(F)F.[K+]` [potassium bis(pentafluoroethylsulfonyl) amide], the Triple point temperature was 427 ± 2 K and the Normal melting temperature stood at 273 ± 2 °C.
Consider `O=S(=O)([N-]S(=O)(=O)C(F)(F)C(F)(F)F)C(F)(F)C(F)(F)F.[Li+]` [lithium bis(pentafluoroethylsulfonyl)amide], for which the Triple point temperature came out at 485 ± 2 K and the Normal melting temperature is 328 ± 2 °C.
For `O=S(=O)([N-]S(=O)(=O)C(F)(F)C(F)(F)F)C(F)(F)C(F)(F)F.[Na+]` [sodium bis(pentafluoroethylsulfonyl)amide] the same measures were 454 ± 2 K and 266 ± 2 °C.
For `O=S(=O)([N-]S(=O)(=O)C(F)(F)C(F)(F)F)C(F)(F)C(F)(F)F.[Cs+]` [cesium bis((perfluoroethyl)sulfonyl)amide], the Triple point temperature is on record as 369 ± 2 K and the Normal melting temperature is 253 ± 2 °C.
For `O=S(=O)([N-]S(=O)(=O)C(F)(F)C(F)(F)F)C(F)(F)C(F)(F)F.[Rb+]` [rubidium bis((perfluoroethyl)sulfonyl)amide] the same measures were 419 ± 2 K and 266 ± 2 °C.
